Assays:
[1] = target: T1, PPARγ (Homo sapiens, UniProt P37231); assay: biochemical; assay type: binding
T1 construct: purchased Life Technologies
T1 sequence (P37231 232-505 limits assumed): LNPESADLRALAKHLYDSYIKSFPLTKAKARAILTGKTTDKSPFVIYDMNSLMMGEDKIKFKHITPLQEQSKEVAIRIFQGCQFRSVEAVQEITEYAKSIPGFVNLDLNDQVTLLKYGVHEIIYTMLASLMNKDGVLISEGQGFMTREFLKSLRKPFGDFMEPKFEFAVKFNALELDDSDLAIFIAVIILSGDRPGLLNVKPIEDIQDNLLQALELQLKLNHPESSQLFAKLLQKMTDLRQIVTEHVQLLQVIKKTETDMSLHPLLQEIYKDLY
Method: The indicated concentrations were tested and results were plotted to obtain the polynomial trend on a logarithmic range. […] HEK293 cells were co-transfected with GAL4-PPARγ and GAL4-luc and incubated with the indicated compound concentrations for 6 hours prior to luciferase activity determination. Results are expressed as the fold induction ± S.D. relative to untreated control. […] All experiments are shown as mean ± S.D. from at least three independent experiments.
To determine PPARγ binding activity the PolarScreen^TM PPAR Competitor Assay kit (Life Technologies, CA, USA) was used following the manufacturer’s instructions. […] To study PPARγ transcriptional activity HEK293 cells were seeded in 24-well plates and transiently co-transfected with the expression vector GAL4-PPARγ and the luciferase reporter vector GAL4-luc using Roti-Fect (Carl Roth, Karlsruhe, Germany) following the manufacturer’s instructions. To correct for transfection efficacy, 100 ng Renilla luciferase (pRL-CMV) was also cotransfected. After stimulation, the luciferase activities were quantified using Dual-Luciferase Assay (Promega, Madison, WI, USA).

[2] = Cysteamine recovery assay (thiol trapping)
Method: cysteamine to form polar and not extractable adducts.
Determination of ROS: N2a cells were seeded at 25x 10^3 cells/ml in 96-well plates and incubated with 0.25 ȝM 5-(and-6 )-chloro meth yl-2ƍ,7ƍ-dichlorodihydrofluorescein diacetate acet yl ester (C M-H 2 DCFDA) for 20 minutes at 37°C. Then, the cells were treated with either VCE-003 or VCE-003.2 for 2 hours. Cells exposed to pro-oxidant tert-Butyl h ydroperoxide (TBHP) were used as positive control. H 2 DCFDA oxidation was detected using an Incuc yteTM Live-Cell Imaging S ystem (Hertfordshire, UK).
Nrf2 transcriptional assay: To study Nrf2 transcriptional activity N2a cells were seeded (105/ml) in 24-well plates and transientl y transfected with the plasmid NQO1-ARE-Luc using Roti©-Fect following the manufacturer’s instructions (Carl Roth, Karlsruhe, German y). After 24 hours, cells were incubated wi th the compounds at the concentrations indicated during 6 hours and the luciferase activit y was determined using an Autolumat LB 953 (EG&G Berthold, Bad Wildbad, Germany). Protein content was determined b y the Bradford method to calculate R LU/Pg of protein and the results were expressed as a fold induction over untreated cells.

[3] = tested on: QA-induced excitotoxicity in CD1 mice; assay: Intrastriatal QA-induced model of Huntington's disease; assay type: in vivo
Method: Figure 5 Protective action of VCE-003.2 administration in QA-induced excitotoxicity in vivo. (a) CD1 mice were subjected to quinolinic acid (QA) intrastriatal injection and RotaRod performance (fold change) was determined 2 days after lesion in vehicle- and VCE-003.2-treated mice (10 mg/kg). (b) Representative MRI images (Upper panel) and edema volume quantification (lower panel) 5 days after QA injection. Values are expressed as means ± SEM. Sham-Veh and Sham-VCE (n = 7 in each group); QA-Veh (n = 8); QA-VCE (n = 7). **p < 0.01, ***p < 0.001 vs. Vehicle. ^#p < 0.05 vs. QA.
Figure 6 Neuroprotection and attenuation of glial reactivity by VCE-003.2 in QA-induced excitotoxicity in vivo. (a) Representative immunofluorescence images of DARPP32, GFAP, Iba-1 are shown in sham and QA-injected mice treated with vehicle or VCE-003.2 (10 mg/kg). (b) Immunoreactivity of the different markers was quantified with Image J software and referred to the striatal surface analyzed. Values are expressed as means ± SEM. Sham-Veh and Sham-VCE (n = 3); QA-Veh (n = 8); QA-VCE (n = 6). **p < 0.01, ***p < 0.001 vs. QA. Bar size, 200 μm.
Mice were housed under standard conditions (12-h light/dark cycle) in groups with access to food and water ad libitum. All experiments were performed in accordance with European Union guideline and approved by the Animal Research Ethic Committee of Córdoba University (2014PI/017) (3NP model) and by the Animal Research Ethic Committee of Complutense University (CEA-UCM 73/2012) (QA model). Procedures were designed to minimize the number of animals used and their suffering. Excitotoxicity was induced by intrastriatal quinolinic acid (QA) administration (100 nmol in 1 μL PBS solution, unilaterally) as previously described[41] at the following coordinates: +0.6 posterior to bregma, +1.85 medio-lateral and -2.7 dorso-ventral to dura, in 12-week-old CD1 male mice (Harlan Ibérica, Barcelona, Spain). Pharmacological manipulation with VCE-003.2 (10 mg/kg body weight) was performed i.p. daily in 2% Tween 20 and 3% DMSO in saline buffer until sacrifice. Control animals received the corresponding vehicle injections. Motor function was assessed by RotaRod analysis conducted with acceleration from 4 to 40 rpm over a period of 570 s in an LE8200 device (Harvard Apparatus, Barcelona, Spain). […] 3NP-treated animals and their respective non-lesioned controls (injected with PBS) were used for pharmacological studies with VCE-003.2. Treatments consisted of 4 i.p. injections every 24 h with 20 mg/kg VCE-003.2 or vehicle (4% DMSO plus 6,2% Tween 20 in saline buffer), with the first and the last injections 30 min before the first and the last injections of 3NP, respectively. In some experiments, mice received a combination of VCE-003.2 and the PPARγ antagonist T0070907 (5 mg/kg) injected 15 minutes before VCE-003.2. In 3NP-lesioned mice, motor activity, hindlimb clasping, dystonia, and truncal dystonia were evaluated following previously described procedures. All behavioural tests were conducted prior to drug injections to avoid acute effects of the compounds under investigation and all animals were euthanized 12 h after the last injection of 3NP and their brains removed. The right hemispheres were used to dissect the striatum which was frozen in RNAlater (Sigma-Aldrich) and stored at −80 °C for biochemical analyses. […]

**Q.** For `CCCCCC1=C(NCC)C(=O)C(C/C=C(\C)CCC=C(C)C)=C(O)C1=O` [VCE-003.2], which IC50 [1] is on record?
**A.** 1200 nM

**Q.** What about the “recovery after treatment with cysteamine (thiol-trapping reactivity)” value [2] of the same compound?
**A.** recovered unscathed

**Q.** And the RotaRod performance ([3]; 2 days after QA injury, 10 mg/kg i.p. daily)?
**A.** reversed

**Q.** And the “edema volume (MRI)” value ([3]; 5 days after QA injury, 10 mg/kg)?
**A.** edema volume was not affected

**Q.** What about the “QA-induced DARPP32 neuronal loss” value ([3]; striatum, 10 mg/kg) of the same compound?
**A.** prevented QA-induced DARRP32 neuronal loss

**Q.** And the “microglial activation (Iba-1)” value ([3]; striatum, 10 mg/kg)?
**A.** prevented QA-induced DARRP32 neuronal loss and microglial activation

**Q.** And the “reactive astrogliosis (GFAP)” value ([3]; striatum, 10 mg/kg)?
**A.** tendency to attenuate reactive astrogliosis

From publication PMC4949444 (Scientific Reports, 2016)
